Assay results published in patent US8343957B2, “Therapeutic pyrazoloquinoline urea derivatives” (Dart Neuroscience (Cayman) Ltd., priority 2007, dated 2013).

Molecular target: GABAA central benzodiazepine receptor
Experiment: Benzodiazepine Binding Assay
Details: read-out: BZ binding Assay IC50; 1 nM (3H)-flunitrazepam, rat whole brain (except cerebellum) membranes, 60 minutes at 25° C.

Compound	IC50
5-(4-Isopropylpiperazine-1-carbonyl)-7,8-difluoro-4-methyl-2-phenyl-2,5-dihydro-pyrazolo-(4,3-c)quinolin-3-one [Compd 48]	> 1 µM
O=C(N1CCOCC1)n1cc2c(=O)n(-c3ccccc3)nc-2c2ccccc21 [Compd 13, 5-(Morpholine-4-carbonyl)-2-phenyl-2,5-dihydro-pyrazolo-(4,3-c)quinolin-3-one]	> 1 µM
CN1CCN(C(=O)n2cc3c(=O)n(-c4ccccc4)nc-3c3cc(F)c(F)cc32)CC1 [Compd 22, 5-(4-Methylpiperazine-1-carbonyl)-7,8-difluoro-2-phenyl-2,5-dihydro-pyrazolo-(4,3-c)quinolin-3-one]	< 1 µM
COc1ccc2c(c1)c1nn(-c3ccccc3)c(=O)c-1cn2C(=O)N1CCN(C(C)C)CC1 [Compd 23, 5-(4-Isopropylpiperazine-1-carbonyl)-8-methoxy-2-phenyl-2,5-dihydro-pyrazolo-(4,3-c)quinolin-3-one]	< 1 µM
Cc1ccc2c(c1)c1nn(-c3ccccc3)c(=O)c-1cn2C(=O)N1CCN(C(C)C)CC1 [Compd 25, 5-(4-Isopropylpiperazine-1-carbonyl)-8-methyl-2-phenyl-2,5-dihydro-pyrazolo-(4,3-c)quinolin-3-one]	< 1 µM
Cc1ccc2c(c1)c1nn(-c3ccccc3)c(=O)c-1cn2C(=O)N1CCN(C)CC1 [Compd 26, 5-(4-Methylpiperazine-1-carbonyl)-8-methyl-2-phenyl-2,5-dihydro-pyrazolo-(4,3-c)quinolin-3-one]	< 1 µM
Cc1ccc2c(c1)c1nn(-c3ccccc3)c(=O)c-1cn2C(=O)N1CCC(O)CC1 [Compd 27, 5-(4-Hydroxypiperidine-1-carbonyl)-8-methyl-2-phenyl-2,5-dihydro-pyrazolo-(4,3-c)quinolin-3-one]	< 1 µM
Cc1ccc2c(c1)c1nn(-c3ccccc3)c(=O)c-1cn2C(=O)N1CCC(F)CC1 [Compd 28, 5-(4-Fluoropiperidine-1-carbonyl)-8-methyl-2-phenyl-2,5-dihydro-pyrazolo-(4,3-c)quinolin-3-one]	< 1 µM
Cc1ccc2c(c1)c1nn(-c3ccccc3)c(=O)c-1cn2C(=O)N1CCCN(C)CC1 [Compd 29, 5-(4-Methylperhydro[1,4]-diazepine-1-carbonyl)-8-methyl-2-phenyl-2,5-dihydro-pyrazolo-(4,3-c)quinolin-3-one]	< 1 µM
O=C(N1CCC(O)CC1)n1cc2c(=O)n(-c3ccccc3)nc-2c2ccccc21 [Compd 30, 5-(4-Hydroxypiperidine-1-carbonyl)-2-phenyl-2,5-dihydro-pyrazolo-(4,3-c)quinolin-3-one]	> 1 µM
CN(C)C(=O)n1cc2c(=O)n(-c3ccccc3)nc-2c2ccccc21 [Compd 32, 5-(Dimethylaminocarbonyl)-2-phenyl-2,5-dihydro-pyrazolo-(4,3-c)quinolin-3-one]	< 1 µM
CN(C)C1CCN(C(=O)n2cc3c(=O)n(-c4ccccc4)nc-3c3ccccc32)CC1 [Compd 33, 5-(4-N,N-Dimethylaminopiperidine-1-carbonyl)-2-phenyl-2,5-dihydro-pyrazolo-(4,3-c)quinolin-3-one]	< 1 µM

Results, then the compound that gave them:

IC50	Compound
< 1 µM	CC1CCN(C(=O)n2cc3c(=O)n(-c4ccccc4)nc-3c3ccccc32)CC1 [Compd 5, 5-(4-Methylpiperidine-1-carbonyl)-2-phenyl-2,5-dihydro-pyrazolo-(4,3-c)quinolin-3-one]
< 1 µM	CC1CN(C(=O)n2cc3c(=O)n(-c4ccccc4)nc-3c3ccccc32)CC(C)O1 (stereo not shown) [Compd 6]
< 1 µM	COCCN1CCN(C(=O)n2cc3c(=O)n(-c4ccccc4)nc-3c3ccccc32)CC1 [Compd 7, 5-(4-(2-Methoxyethyl)-piperazine-1-carbonyl)-2-phenyl-2,5-dihydro-pyrazolo-(4,3-c)quinolin-3-one]
< 1 µM	CC(C)N1CCN(C(=O)n2cc3c(=O)n(-c4ccccc4)nc-3c3ccccc32)CC1 [Compd 8, 5-(4-Isopropylpiperazine-1-carbonyl)-2-phenyl-2,5-dihydro-pyrazolo-(4,3-c)quinolin-3-one]
< 1 µM	CC1CCCN1C(=O)n1cc2c(=O)n(-c3ccccc3)nc-2c2ccccc21 (stereo not shown) [Compd 9, 5-(2-Methylpyrrolidine-1-carbonyl)-2-phenyl-2,5-dihydro-pyrazolo-(4,3-c) quinolin-3-one]
< 1 µM	O=C(N1CCN(c2ccccc2)CC1)n1cc2c(=O)n(-c3ccccc3)nc-2c2ccccc21 [Compd 10, 5-(4-Phenylpiperazine-1-carbonyl)-2-phenyl-2,5-dihydro-pyrazolo-(4,3-c) quinolin-3-one]
< 1 µM	CC1CN(C(=O)n2cc3c(=O)n(-c4ccccc4)nc-3c3ccccc32)CC(C)N1 (stereo not shown) [Compd 11, 5-(3,5-Dimethylpiperazine-1-carbonyl)-2-phenyl-2,5-dihydro-pyrazolo-(4,3-c)quinolin-3-one]
< 1 µM	O=C(N1CCCCC1)n1cc2c(=O)n(-c3ccccc3)nc-2c2ccccc21 [Compd 12, 5-(Piperidine-1-carbonyl)-2-phenyl-2,5-dihydro-pyrazolo-(4,3-c)quinolin-3-one]
< 1 µM	C=CCN1CCN(C(=O)n2cc3c(=O)n(-c4ccccc4)nc-3c3ccccc32)CC1 [Compd 14, 5-(4-Allylpiperazine-1-carbonyl)-2-phenyl-2,5-dihydro-pyrazolo-(4,3-c) quinolin-3-one]
< 1 µM	CC(C)N1CCN(C(=O)n2cc3c(=O)n(-c4ccccc4F)nc-3c3ccccc32)CC1 [Compd 15, 5-(4-Isopropylpiperazine-1-carbonyl)-2-(2′-fluorophenyl)-2,5-dihydro-pyrazolo-(4,3-c)quinolin-3-one]
< 1 µM	CN1CCN(C(=O)n2cc3c(=O)n(-c4ccccc4F)nc-3c3ccccc32)CC1 [Compd 16, 5-(4-Methylpiperazine-1-carbonyl)-2-(2′-fluorophenyl)-2,5-dihydro-pyrazolo-(4,3-c)quinolin-3-one]
< 1 µM	COc1ccc(-n2nc3c4ccccc4n(C(=O)N4CCN(C(C)C)CC4)cc-3c2=O)cc1 [Compd 17, 5-(4-Isopropylpiperazine-1-carbonyl)-2-(4′-methoxyphenyl)-2,5-dihydro-pyrazolo-(4,3-c)quinolin-3-one]
< 1 µM	COc1ccc(-n2nc3c4ccccc4n(C(=O)N4CCN(C)CC4)cc-3c2=O)cc1 [Compd 18, 5-(4-Methylpiperazine-1-carbonyl)-2-(4′-methoxyphenyl)-2,5-dihydro-pyrazolo-(4,3-c)quinolin-3-one]
< 1 µM	CC(C)N1CCN(C(=O)n2cc3c(=O)n(-c4ccccc4)nc-3c3cc(F)ccc32)CC1 [Compd 19, 5-(4-Isopropylpiperazine-1-carbonyl)-8-fluoro-2-phenyl-2,5-dihydro-pyrazolo-(4,3-c)quinolin-3-one]
< 1 µM	CN1CCN(C(=O)n2cc3c(=O)n(-c4ccccc4)nc-3c3cc(F)ccc32)CC1 [Compd 20, 5-(4-Methylpiperazine-1-carbonyl)-8-fluoro-2-phenyl-2,5-dihydro-pyrazolo-(4,3-c)quinolin-3-one]
< 1 µM	CC(C)N1CCN(C(=O)n2cc3c(=O)n(-c4ccccc4)nc-3c3cc(F)c(F)cc32)CC1 [Compd 21, 5-(4-Isopropylpiperazine-1-carbonyl)-7,8-difluoro-2-phenyl-2,5-dihydro-pyrazolo-(4,3-c)quinolin-3-one]
